The values below come from publication PMC12073402, “A Selective MAP3K1 Inhibitor Facilitates Discovery of NPM1 as a Member of the Network” (Molecules, 2025).

Each structure is given as a SMILES string.

A short description of data set [1]: Metabolic stability in human liver microsomes (LC-MS/MS). Type of data set: in vitro ADME. An excerpt:
An approach to address this issue of bioavailability is to improve metabolic stability. The para-position of the phenyl ring in acetanilide moieties is susceptible to oxidation. […] To test this, we altered the substitution pattern on the phenyl ring by moving the F atom from the ortho in 84 to the para position (Figure 1A). The regioisomer 51-106, resulting from the above change, was synthesized by coupling 3-(1-methyl-1H-pyrazol-4-yl)quinoxalin-6-amine (1) with freshly prepared 1-fluoro-4-isocyanato-2-(trifluoromethyl)benzene in dichloromethane (Scheme 1). To determine the metabolic stability of 51-106, we incubated 51-106 and analog 84 with human (pooled male and female) liver microsomes and monitored their stability using liquid chromatography–tandem mass spectrometry.
The in vitro metabolic stability of 51-106 was determined using human liver […] (XenoTech, LLC; Kansas City, KS, USA), following previously reported methods. […] Sample analysis was performed by liquid chromatography–tandem mass spectrometry (SCIEX QTRAP 4000 LC-MS/MS System, SCIEX, Framingham, MA, USA).
(In general: Liver microsomes are vesicles of endoplasmic reticulum, rich in cytochrome P450 enzymes.)

The subject of the next data set is NPM1 phosphorylation. The experiment in a line: TMT phosphoproteomics of PANC-1 cells. The format is cell-based. The conditions noted are these: 10 μM, 2 h, versus DMSO. As to the method:
Next, we wanted to assess the effects of 51-106 on the early phosphorylation events associated with transient MAP3K1 inhibition. To this end, we conducted global proteomic and phosphoproteomic analyses of PANC-1 cells treated with varying doses of 51-106 (10, 5, 2.5, 1.25, 0.625, and 0 μM) for 2 h using a tandem mass tag (TMT)-based multiplexing strategy (Figure 4). Across all conditions, a total of 7028 proteins and 22,843 phosphosites were quantified and successfully mapped to known protein sequences. Significance cutoffs of >0.32 or <−0.32 log2FC of 51-106 compared to DMSO and FDR < 0.05 were used to analyze differences in total and phosphorylated protein levels between treatment and control samples using RokaiXplorer (Supplementary Figure S3a).
PANC-1 (1 × 10^7) cells were seeded into T125 flasks (FB012939, Fisher Scientific) and allowed to attach overnight in a humidified 5% CO2 incubator at 37 °C. Drug working solutions were prepared from 10 mM DMSO stocks. 51-106 was added in 4 dilutions, in triplicates. […]
Global proteome and phosphopeptide-enriched fractions were analyzed on an Orbitrap Eclipse mass spectrometer using UltiMate 3000 RSLC nano system for online separation of peptides in trap and elute configuration (Thermo Scientific, San Jose, CA, USA). […] Survey MS scans were recorded in Orbitrap mass analyzer with 375 to 1500 m/z scan range at 120,000 resolution. […]

In the case of `Cn1cc(-c2cnc3ccc(NC(=O)Nc4ccc(F)c(C(F)(F)F)c4)cc3n2)cn1` [51-106, 1-(4-Fluoro-3-(trifluoromethyl)phenyl)-3-(3-(1-methyl-1H-pyrazol-4-yl)quinoxalin-6-yl)urea], in data set [1] (51-106 versus analog 84), the “improvement in t½ in human liver microsomes” value is reported as ~ 3.7 fold. The “T1/2 (half-life) in human liver microsomes” value in data set [1] (Species Human) is ~ 50 h. Also, the “Hepatic Extraction Ratio (E)” value in data set [1] (Species Human, human liver microsomes) is given as 0.03. In addition, in data set [1] (both sexes, human, liver microsomes, Species Human, read-out: T1/2 (half-life) in human liver microsomes (converted)), the half-life was 50.2 h. In addition, in the data set on NPM1 phosphorylation, the “decrease in NPM1 S227 phosphorylation” value was 3.5 fold.
